Test results published in PMC5613016, “GRL-09510, a Unique P2-Crown-Tetrahydrofuranylurethane -Containing HIV-1 Protease Inhibitor, Maintains Its Favorable Antiviral Activity against Highly-Drug-Resistant HIV-1 Variants in vitro” (Scientific Reports, 2017).

Assays:
HIVMDR strains = experiment: p24 production inhibition in PHA-PBMC, summary over HIVMDR strains; format: cell-based, HIV-1; details: Human immunodeficiency virus 1, range over clinical HIVMDR isolates, read-out: EC50 values against HIVMDR
Protocol: The susceptibility of HIV-1LAI or HIV-2ROD to various compounds was determined as previously described[20]–[22]. Briefly, MT-2 cells (10^4/ml) were exposed to 100 TCID50 of HIV-1LAI or HIV-2ROD in the presence or absence of various concentrations of compounds in 96-well plates and were incubated at 37 °C for 7 days. After incubation, 100 μl of the medium was removed from each well, 3-(4,5-dimetylthiazol-2-yl)-2,5-diphenyltetrazolium bromide (MTT) solution (10 μl, 7.5 mg/ml in PBS) was added to each well, followed by incubation at 37 °C for 2 h. […] To determine the sensitivity of clinically isolated HIV-1s to compounds, PHA-PBMC (10^6/ml) were exposed to 50 TCID50 of each HIV-1 and cultured in the presence or absence of various concentrations of compounds in 10-fold serial dilutions in 96-well plates. In determining the drug-susceptibility of certain laboratory HIV-1 strains, MT-4 cells were employed as target cells as previously described[23],[24]. MT-4 cells (10^5/ml) were exposed to 100 TCID50 of drug-resistant HIV-1s in the presence or absence of various concentrations of compounds and were incubated at 37 °C. On day 7, the supernatants were harvested and the amounts of p24 were determined by using a fully-automated chemiluminescent enzyme immunoassay system (Lumipulse f: Fujirebio, Tokyo)[35]–[37]. […]

HIV-1ATV ^R 5μM = experiment: p24 production inhibition in MT-4 cells; format: cell-based
Protocol: (§1) The susceptibility of HIV-1LAI or HIV-2ROD to various compounds was determined as previously described[20]–[22]. Briefly, MT-2 cells (10^4/ml) were exposed to 100 TCID50 of HIV-1LAI or HIV-2ROD in the presence or absence of various concentrations of compounds in 96-well plates and were incubated at 37 °C for 7 days. After incubation, 100 μl of the medium was removed from each well, 3-(4,5-dimetylthiazol-2-yl)-2,5-diphenyltetrazolium bromide (MTT) solution (10 μl, 7.5 mg/ml in PBS) was added to each well, followed by incubation at 37 °C for 2 h. […] To determine the sensitivity of clinically isolated HIV-1s to compounds, PHA-PBMC (10^6/ml) were exposed to 50 TCID50 of each HIV-1 and cultured in the presence or absence of various concentrations of compounds in 10-fold serial dilutions in 96-well plates. In determining the drug-susceptibility of certain laboratory HIV-1 strains, MT-4 cells were employed as target cells as previously described[23],[24]. MT-4 cells (10^5/ml) were exposed to 100 TCID50 of drug-resistant HIV-1s in the presence or absence of various concentrations of compounds and were incubated at 37 °C. On day 7, the supernatants were harvested and the amounts of p24 were determined by using a fully-automated chemiluminescent enzyme immunoassay system (Lumipulse f: Fujirebio, Tokyo)[35]–[37]. […] All assays were performed in duplicate, and EC50 shown in this report represent average values of two to four independent experiments. PHA-PBMCs were derived from a single donor in each independent experiment. The research protocols described in the present study were carried out in accordance with relevant guidelines and regulations, and were approved in Ethics Committee for Epidemiological and General Research at the Faculty of Life Sciences, Kumamoto University.

HIV-1NL4-3 = experiment: p24 production inhibition in MT-4 cells; format: cell-based; details: Human immunodeficiency virus 1, MT4, MT-4 cells
Protocol: as §1

HIV-1_9510 ^R 36P = experiment: p24 production inhibition in MT-4 cells; format: cell-based
Protocol: as §1

HIV-1LPV ^R 5μM = experiment: p24 production inhibition in MT-4 cells; format: cell-based
Protocol: as §1

HIV-1APV ^R 5μM = experiment: p24 production inhibition in MT-4 cells; format: cell-based
Protocol: as §1

HIV-1MDR/G = experiment: p24 production inhibition in PHA-PBMC; format: cell-based
Summary of the method: (§2)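 PBMC: PHA-stimulated, 10^6/ml, one donor/experiment, 50 TCID50 isolate, 10-fold drug series, p24 day 7. MT-4: 10^5/ml, 100 TCID50, 37 °C, p24 day 7. MT-2: 10^4/ml, 100 TCID50, 7 d, MTT 2 h.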

HIV-1MDR/C = experiment: p24 production inhibition in PHA-PBMC; format: cell-based
Summary of the method: as §2

[1] = test system: HIV-1ME46 (subtype B, X4/R5); experiment: p24 production inhibition in PHA-PBMC; format: cell-based; details: Human immunodeficiency virus 1, PHA-PBMC, p24 Gag production
Summary of the method: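 MTT read-out after 7 d at 37 °C for MT-2 (10^4/ml) challenged with 100 TCID50 virus ± compound. p24 by chemiluminescent EIA on day 7 for PHA-PBMC (10^6/ml, 50 TCID50) and MT-4 (10^5/ml, 100 TCID50).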

[2] = number in parentheses, compared to HIV-1NL4-3
[3] = compared to EC50 for HIV-1ERS104pre

## COc1ccc(S(=O)(=O)N(CC(C)C)CC(O)C(Cc2ccccc2)NC(=O)OC2C3COC4OCC2C4C3)cc1 (stereo not shown) [GRL-09510]
HIVMDR strains
  EC50: 3.2 to 4 nM
HIV-1ATV ^R 5μM; [2]
  fold change of EC50 HIV-1ATV ^R 5μM: 1
HIV-1ATV ^R 5μM; read-out: EC50 HIV-1ATV ^R 5μM, MT-4 cells, p24 Gag production
  EC50: 3.7 ± 0.9 nM
HIV-1NL4-3; p24 Gag production, Table 3
  EC50: 2.8 ± 0.7 nM
HIV-1NL4-3; p24 assay, Table 4, four to six independent experiments
  EC50: 2.2 ± 0.9 nM
HIV-1_9510 ^R 36P; Human immunodeficiency virus 1, MT4, MT-4 cells, p24 assay, read-out: EC50 HIV-1_9510 ^R 36P
  EC50: 24 ± 2 nM
HIV-1_9510 ^R 36P; compared to EC50 for HIV-1NL4-3, Supplemental Table 3
  fold change of EC50 HIV-19510RP36: 11
HIV-1_9510 ^R 36P; compared to the value against HIV-1NL4-3
  fold change of EC50 HIV-1_9510 ^R 36P: 11
HIV-1LPV ^R 5μM; [2]
  fold change of EC50 HIV-1LPV ^R 5μM: 1
HIV-1LPV ^R 5μM; read-out: EC50 HIV-1LPV ^R 5μM, MT-4 cells, p24 Gag production
  EC50: 3.9 ± 0.5 nM
HIV-1APV ^R 5μM; compared to HIV-1NL4-3, Supplemental Table 4
  fold change in EC50 HIV-1APVR5M: 2
HIV-1APV ^R 5μM; [2]
  fold change of EC50 HIV-1APV ^R 5μM: 2
HIV-1APV ^R 5μM; read-out: EC50 HIV-1APV ^R 5μM, MT-4 cells, p24 Gag production
  EC50: 4.8 ± 0.1 nM
HIV-1MDR/G; PHA-PBMC, p24 Gag production
  EC50: 3.3 ± 1.4 nM
HIV-1MDR/G; [3]
  fold change of EC50 HIV-1MDR/G: 1
HIV-1MDR/G; compared to HIV-1WT/ERS104pre, Supplemental Table 4
  fold change in EC50 HIV-1MDR/G: 1
HIV-1MDR/C; Human immunodeficiency virus 1, PHA-PBMC, p24 Gag production
  EC50: 3.2 ± 0.6 nM
HIV-1MDR/C; [3]
  fold change of EC50 HIV-1MDR/C: 1
[1]
  EC50: 1.2 ± 0.2 nM
